Results taken from ChEMBL document CHEMBL1137477, “Preparation and in vitro anti-staphylococcal activity of novel 11-deoxy-11-hydroxyiminorifamycins” (2007).
Converted amounts (≈) assume the structure as drawn.

Experiments:
Assay type in all cases: functional
Staphylococcus aureus [1] = assay: Antibacterial activity against rifamycin-sensitive Staphylococcus aureus CB190 ATCC 29213
Staphylococcus aureus [2] = assay: Antibacterial activity against rifamycin-resistance Staphylococcus aureus CB372
Staphylococcus aureus [3] = assay: Antibacterial activity against rifamycin-resistance Staphylococcus aureus CB370

SMILES	MIC (Staphylococcus aureus [1]) [ng/mL]	MIC (Staphylococcus aureus [2]) [µg/mL]	MIC (Staphylococcus aureus [3]) [µg/mL]
CO[C@H]1/C=C/O[C@@]2(C)Oc3c(C)c(O)c4c(=O)c(c5oc6cc(N7CCN(C(C)C)CC7)cc(O)c6nc-5c4c3/C2=N/O)NC(=O)/C(C)=C\C=C\[C@H](C)[C@H](O)[C@@H](C)[C@@H](O)[C@@H](C)[C@H](OC(C)=O)[C@@H]1C	8 (≈ 0.00849 µM)	1 (≈ 1.06 µM)	32 (≈ 34 µM)
CO[C@H]1/C=C/O[C@@]2(C)Oc3c(C)c(O)c4c(=O)c(c5oc6cc(N7CCN(CC(C)C)CC7)cc(O)c6nc-5c4c3/C2=N/O)NC(=O)/C(C)=C\C=C\[C@H](C)[C@H](O)[C@@H](C)[C@@H](O)[C@@H](C)[C@H](OC(C)=O)[C@@H]1C	4 (≈ 0.00418 µM)	2 (≈ 2.09 µM)	32 (≈ 33.5 µM)
CO[C@H]1/C=C/O[C@@]2(C)Oc3c(C)c(O)c4c(=O)c(c5oc6cc(N7CCN(CC(C)C)CC7)cc(C)c6nc-5c4c3/C2=N/O)NC(=O)/C(C)=C\C=C\[C@H](C)[C@H](O)[C@@H](C)[C@@H](O)[C@@H](C)[C@H](OC(C)=O)[C@@H]1C	8 (≈ 0.00838 µM)	4 (≈ 4.19 µM)	> 64
CO[C@H]1/C=C/O[C@@]2(C)Oc3c(C)c(O)c4c(=O)c(c5oc6cc(N7CCN(C)CC7)cc(C)c6nc-5c4c3/C2=N/O)NC(=O)/C(C)=C\C=C\[C@H](C)[C@H](O)[C@@H](C)[C@@H](O)[C@@H](C)[C@H](OC(C)=O)[C@@H]1C	4 (≈ 0.00439 µM)	1 (≈ 1.1 µM)	16 (≈ 17.5 µM)
CCN1CCN(c2cc(O)c3nc4c5c6c7c(C)c(O)c5c(=O)c(c-4oc3c2)NC(=O)/C(C)=C\C=C\[C@H](C)[C@H](O)[C@@H](C)[C@@H](O)[C@@H](C)[C@H](OC(C)=O)[C@H](C)[C@@H](OC)/C=C/O[C@@](C)(O7)/C6=N\O)CC1	8 (≈ 0.00862 µM)	2 (≈ 2.16 µM)	32 (≈ 34.5 µM)
CCCCN1CCN(c2cc(O)c3nc4c5c6c7c(C)c(O)c5c(=O)c(c-4oc3c2)NC(=O)/C(C)=C\C=C\[C@H](C)[C@H](O)[C@@H](C)[C@@H](O)[C@@H](C)[C@H](OC(C)=O)[C@H](C)[C@@H](OC)/C=C/O[C@@](C)(O7)/C6=N\O)CC1	4 (≈ 0.00418 µM)	2 (≈ 2.09 µM)	16 (≈ 16.7 µM)
CO[C@H]1/C=C/O[C@@]2(C)Oc3c(C)c(O)c4c(=O)c(c5oc6cc(N7CCN(CC(C)C)CC7)ccc6nc-5c4c3/C2=N/O)NC(=O)/C(C)=C\C=C\[C@H](C)[C@H](O)[C@@H](C)[C@@H](O)[C@@H](C)[C@H](OC(C)=O)[C@@H]1C	4 (≈ 0.00425 µM)	0.5 (≈ 0.532 µM)	8 (≈ 8.51 µM)
CO[C@H]1/C=C/O[C@@]2(C)Oc3c(C)c(O)c4c(c3/C2=N/O)C(=O)C=C(NC(=O)/C(C)=C\C=C\[C@H](C)[C@H](O)[C@@H](C)[C@@H](O)[C@@H](C)[C@H](OC(C)=O)[C@@H]1C)C4=O	2 (≈ 0.00281 µM)	0.5 (≈ 0.703 µM)	32 (≈ 45 µM)
CO[C@H]1/C=C/O[C@@]2(C)Oc3c(C)c(O)c4c(=O)c(c5oc6cc(N7CCN(CC8CCCCC8)CC7)ccc6nc-5c4c3/C2=N/O)NC(=O)/C(C)=C\C=C\[C@H](C)[C@H](O)[C@@H](C)[C@@H](O)[C@@H](C)[C@H](OC(C)=O)[C@@H]1C	8 (≈ 0.00816 µM)	2 (≈ 2.04 µM)	16 (≈ 16.3 µM)
CO[C@H]1/C=C/O[C@@]2(C)Oc3c(C)c(O)c4c(=O)c(c5oc6cc(N7CCN(CC8CCCCC8)CC7)cc(O)c6nc-5c4c3/C2=N/O)NC(=O)/C(C)=C\C=C\[C@H](C)[C@H](O)[C@@H](C)[C@@H](O)[C@@H](C)[C@H](OC(C)=O)[C@@H]1C	8 (≈ 0.00803 µM)	8 (≈ 8.03 µM)	8 (≈ 8.03 µM)
CO[C@H]1/C=C/O[C@@]2(C)Oc3c(C)c(O)c4c(=O)c(c5oc6cc(N7CCN(CC8CCN(C)CC8)CC7)cc(O)c6nc-5c4c3/C2=N/O)NC(=O)/C(C)=C\C=C\[C@H](C)[C@H](O)[C@@H](C)[C@@H](O)[C@@H](C)[C@H](OC(C)=O)[C@@H]1C	130 (≈ 0.129 µM)	4 (≈ 3.96 µM)	32 (≈ 31.6 µM)
CO[C@H]1/C=C/O[C@@]2(C)Oc3c(C)c(O)c4c(=O)c(c5oc6cc(N7CCN(C(C)C)CC7)ccc6nc-5c4c3/C2=N/O)NC(=O)/C(C)=C\C=C\[C@H](C)[C@H](O)[C@@H](C)[C@@H](O)[C@@H](C)[C@H](OC(C)=O)[C@@H]1C	0.5 (≈ 0.00054 µM)	0.12 (≈ 0.13 µM)	8 (≈ 8.64 µM)
CO[C@H]1/C=C/O[C@@]2(C)Oc3c(C)c(O)c4c(=O)c(c5oc6cc(N7CCN(C)CC7)cc(O)c6nc-5c4c3/C2=N/O)NC(=O)/C(C)=C\C=C\[C@H](C)[C@H](O)[C@@H](C)[C@@H](O)[C@@H](C)[C@H](OC(C)=O)[C@@H]1C	4 (≈ 0.00438 µM)	1 (≈ 1.09 µM)	32 (≈ 35 µM)
CO[C@H]1/C=C/O[C@@]2(C)Oc3c(C)c(O)c4c(=O)c(c5oc6cc(N7CCN(CC(C)C)CC7)cc(O)c6nc-5c4c3C2=O)NC(=O)/C(C)=C\C=C\[C@H](C)[C@H](O)[C@@H](C)[C@@H](O)[C@@H](C)[C@H](OC(C)=O)[C@@H]1C [RIFALAZIL]	4 (≈ 0.00425 µM)	2 (≈ 2.13 µM)	32 (≈ 34 µM)
CO[C@H]1/C=C/O[C@@]2(C)Oc3c(C)c(O)c4c(O)c(c(/C=N/N5CCN(C)CC5)c(O)c4c3C2=O)NC(=O)/C(C)=C\C=C\[C@H](C)[C@H](O)[C@@H](C)[C@@H](O)[C@@H](C)[C@H](OC(C)=O)[C@@H]1C [RIFAMPIN]	8 (≈ 0.00972 µM)	16 (≈ 19.4 µM)	> 64
CO[C@H]1/C=C/O[C@@]2(C)Oc3c(C)c(O)c4c(c3C2=O)C(=O)C=C(NC(=O)/C(C)=C\C=C\[C@H](C)[C@H](O)[C@@H](C)[C@@H](O)[C@@H](C)[C@H](OC(C)=O)[C@@H]1C)C4=O [RIFAMYCIN S]	16 (≈ 0.023 µM)	4 (≈ 5.75 µM)	> 64
CO[C@H]1/C=C/O[C@@]2(C)Oc3c(C)c(O)c4c(O)c(cc(O)c4c3C2=O)NC(=O)/C(C)=C\C=C\[C@H](C)[C@H](O)[C@@H](C)[C@@H](O)[C@@H](C)[C@H](OC(C)=O)[C@@H]1C [RIFAMYCIN]	16 (≈ 0.0229 µM)	2 (≈ 2.87 µM)	> 64
